# “Also recorded” adds a separate entry of the source.
# Assays:
# S. pneumoniae = test: Kill or inhibit growth/proliferation; morphology, biofilm and growth disruption (Tables 5, 6); format: cell-based, Streptococcus pneumoniae; parameters: key: A: Peptide aggregates; B: Less hyphal formation; Clumps; Diffuse clumps and small polyps; F: Diffuse growth; H: Thin; I: Growth inhibition; Microcolony formation; Rippled; Small polyps; Thick; W: Halo formation on top, microlonies on bottom; also: test concentration or dose not given here
# C. jejuni = test: as above; format: cell-based, Campylobacter jejuni; parameters: key: A: Peptide aggregates; B: Less hyphal formation; Clumps; Diffuse clumps and small polyps; F: Diffuse growth; H: Thin; I: Growth inhibition; Microcolony formation; Rippled; Small polyps; Thick; W: Halo formation on top, microlonies on bottom
# microorganisms = test: Peptides having multiple activities (targeting/binding, antimicrobial, growth or phenotype altering)
# Text: In certain embodiments, peptides described herein can have multiple activities. Thus for example, a peptide can have both binding/targeting activity and antimicrobial activity. Such peptides can be used, e.g., in a chimeric construct, for any or all of these properties. Thus, for example, a peptide designated “B” in Table 8 can be used as a targeting peptide. If it is also designated G or M it can also be used for antimicrobial activity.
# C. jeikeium = test: Kill or inhibit growth/proliferation; morphology, biofilm and growth disruption (Tables 5, 6); format: cell-based, Corynebacterium jeikeium; parameters: key: A: Peptide aggregates; B: Less hyphal formation; Clumps; Diffuse clumps and small polyps; F: Diffuse growth; H: Thin; I: Growth inhibition; Microcolony formation; Rippled; Small polyps; Thick; W: Halo formation on top, microlonies on bottom; also: test concentration or dose not given here
# P. aeruginosa = test: as above; format: cell-based, Pseudomonas aeruginosa; parameters: key: A: Peptide aggregates; B: Less hyphal formation; Clumps; Diffuse clumps and small polyps; F: Diffuse growth; H: Thin; I: Growth inhibition; Microcolony formation; Rippled; Small polyps; Thick; W: Halo formation on top, microlonies on bottom
# [1] = system: microorganisms (e.g., bacteria, yeasts, fungi); test: Targeting peptide binding to target microorganisms (Table 3); conditions: microorganism(s) the targeting peptide binds, preferably 1x PBS
# B. subtilis = test: Kill or inhibit growth/proliferation; morphology, biofilm and growth disruption (Tables 5, 6); format: cell-based, Bacillus subtilis; parameters: key: A: Peptide aggregates; B: Less hyphal formation; Clumps; Diffuse clumps and small polyps; F: Diffuse growth; H: Thin; I: Growth inhibition; Microcolony formation; Rippled; Small polyps; Thick; W: Halo formation on top, microlonies on bottom; also: test concentration or dose not given here
# S. epidermidis = test: as above; format: cell-based, Staphylococcus epidermidis; parameters: key: A: Peptide aggregates; B: Less hyphal formation; Clumps; Diffuse clumps and small polyps; F: Diffuse growth; H: Thin; I: Growth inhibition; Microcolony formation; Rippled; Small polyps; Thick; W: Halo formation on top, microlonies on bottom
# MRSA = test: as above; format: cell-based, Methicillin-resistant Staphylococcus aureus; parameters: key: A: Peptide aggregates; B: Less hyphal formation; Clumps; Diffuse clumps and small polyps; F: Diffuse growth; H: Thin; I: Growth inhibition; Microcolony formation; Rippled; Small polyps; Thick; W: Halo formation on top, microlonies on bottom; also: test concentration or dose not given here
# M. luteus = test: as above; format: cell-based, Micrococcus luteus; parameters: key: A: Peptide aggregates; B: Less hyphal formation; Clumps; Diffuse clumps and small polyps; F: Diffuse growth; H: Thin; I: Growth inhibition; Microcolony formation; Rippled; Small polyps; Thick; W: Halo formation on top, microlonies on bottom; also: test concentration or dose not given here
# C. albicans = test: as above; format: cell-based, Candida albicans; parameters: key: A: Peptide aggregates; B: Less hyphal formation; Clumps; Diffuse clumps and small polyps; F: Diffuse growth; H: Thin; I: Growth inhibition; Microcolony formation; Rippled; Small polyps; Thick; W: Halo formation on top, microlonies on bottom; also: test concentration or dose not given here
# E. coli = test: as above; format: cell-based, Escherichia coli; parameters: key: A: Peptide aggregates; B: Less hyphal formation; Clumps; Diffuse clumps and small polyps; F: Diffuse growth; H: Thin; I: Growth inhibition; Microcolony formation; Rippled; Small polyps; Thick; W: Halo formation on top, microlonies on bottom; also: test concentration or dose not given here
# E. faecalis = test: as above; format: cell-based, Enterococcus faecalis; parameters: key: A: Peptide aggregates; B: Less hyphal formation; Clumps; Diffuse clumps and small polyps; F: Diffuse growth; H: Thin; I: Growth inhibition; Microcolony formation; Rippled; Small polyps; Thick; W: Halo formation on top, microlonies on bottom; also: test concentration or dose not given here
# [2] = peptide binding conducted in aqueous buffers varied by peptide solubility
# For Organism, effect in this document: test concentration or dose not given here.
Substance,"Organism, effect (S. pneumoniae)","Organism, effect (C. jejuni)",Activities (microorganisms),"Organism, effect (C. jeikeium)","Organism, effect (P. aeruginosa)","Target(s) [1, 2]","Organism, effect (B. subtilis)","Organism, effect (S. epidermidis)","Organism, effect (MRSA)","Organism, effect (M. luteus)","Organism, effect (C. albicans)",Target(s) ([1]; binding in aqueous buffers depending on peptide solubility),"Organism, effect (E. coli)","Organism, effect (E. faecalis)"
LNFRAENKILEKIHISLIDTVEGSA [PF-575],S. pneumoniae (A),C. jejuni (R),G B,C. jeikeium (A),P. aeruginosa (A),M. luteus and E. coli and C. albicans and MRSA and S. pneumoniae and E. faecalis and C. jeikeium,–,–,–,–,–,–,–,–
PF-063: peptide having multiple activities (chain 1 IAAIIVLVLFQKGLLQIFNWILIQLQ; chain 2 IAAIIVLVLFQKGLLQIFNWILIQLQ; Peptide with targeting and/or antimicrobial activity),S. pneumoniae (D),C. jejuni (D),G B,C. jeikeium (D),P. aeruginosa (A),–,B. subtilis (C),S. epidermidis (R),MRSA (M),M. luteus (R),–,–,–,–
PF-067: peptide having multiple activities (DLIVKVHICFVVKTASGYCYLNKREAQAAI; Peptide with targeting and/or antimicrobial activity),S. pneumoniae (D),C. jejuni (D),G B,C. jeikeium (D),P. aeruginosa (A),–,B. subtilis (C),S. epidermidis (D),MRSA (M),M. luteus (R),–,–,–,–
PF-140: peptide having multiple activities (FHRRVIRASEWALTTRSFSTPLRSAAR; Peptide with targeting and/or antimicrobial activity),S. pneumoniae (D),C. jejuni (D),G B,C. jeikeium (D),P. aeruginosa (A),–,–,S. epidermidis (D),MRSA (M),M. luteus (R),C. albicans (B),–,–,–
PF-204: peptide having multiple activities (ALQKQDMNLPSVKNQLVFLKSTG; Peptide with targeting and/or antimicrobial activity),–,–,G B,C. jeikeium (D),P. aeruginosa (H),–,–,S. epidermidis (C),–,M. luteus (C),–,S. epidermidis; also recorded: P. mirabilis; also recorded: E. coli; also recorded: P. aeruginosa; also recorded: C. albicans; also recorded: C. jejuni,–,–
PF-355: peptide having multiple activities (chain 1 WIAIGLLLYFSLKNQ; chain 2 WIAIGLLLYFSLKNQ; Peptide with targeting and/or antimicrobial activity),S. pneumoniae (D),C. jejuni (D),G B,–,P. aeruginosa (A),–,–,S. epidermidis (C),MRSA (A),–,–,–,E. coli (C),E. faecalis (D)
PF-380: peptide having multiple activities (chain 1 KKIIPLITLFVVTLVG; chain 2 KKIIPLITLFVVTLVG; Peptide with targeting and/or antimicrobial activity),S. pneumoniae (D),C. jejuni (D),G B,–,P. aeruginosa (A),–,–,S. epidermidis (C),MRSA (D),–,–,–,E. coli (C),E. faecalis (C)
PF-411: peptide having multiple activities (WVAVAILLNIALQTQLT; Peptide with targeting and/or antimicrobial activity),S. pneumoniae (D),C. jejuni (D),G B,–,P. aeruginosa (A),–,–,S. epidermidis (C),MRSA (D),–,–,–,E. coli (C),E. faecalis (D)
PF-425: peptide having multiple activities (MMELVLKTIIGPIVVGVVLRIVDKWLNKDK; Peptide with targeting and/or antimicrobial activity),S. pneumoniae (D),C. jejuni (D),G B,–,P. aeruginosa (A),S. epidermidis and M. luteus and E. coli and P. aeruginosa and C. albicans and MRSA and S. pneumoniae and C. jeikeium,–,S. epidermidis (D),MRSA (D),–,C. albicans (A),–,E. coli (C),E. faecalis (D)
PF-432: peptide having multiple activities (FNGDSEFFLCIAF; Peptide with targeting and/or antimicrobial activity),S. pneumoniae (D),C. jejuni (D),G B,–,P. aeruginosa (A),–,–,S. epidermidis (M),MRSA (M),–,–,–,E. coli (R),E. faecalis (D)
PF-474: peptide having multiple activities (chain 1 MHRNLVLVKMEPIPHIMIIANQIGIIIEKA; chain 2 MHRNLVLVKMEPIPHIMIIANQIGIIIEKA; Peptide with targeting and/or antimicrobial activity),S. pneumoniae (D),C. jejuni (D),G B,–,P. aeruginosa (A),–,–,S. epidermidis (C),MRSA (D),–,C. albicans (B),–,E. coli (C),E. faecalis (C)
PF-577: peptide having multiple activities (chain 1 PFETRESFRVPVIGILGGWDYFMHP; chain 2 PFETRESFRVPVIGILGGWDYFMHP; Peptide with targeting and/or antimicrobial activity),S. pneumoniae (R),C. jejuni (R),G B,–,P. aeruginosa (A),–,–,S. epidermidis (A),MRSA (M),–,–,–,E. coli (A),E. faecalis (A)
PF-605: peptide having multiple activities (HYRWNTQWWKY; Peptide with targeting and/or antimicrobial activity),S. pneumoniae (D),C. jejuni (R),G B,–,P. aeruginosa (A),–,–,S. epidermidis (R),MRSA (C),–,C. albicans (B),–,E. coli (C),E. faecalis (R)

# From patent US20110039762A1, “TARGETED ANTIMICROBIAL MOIETIES” (C3 JIAN, INC., priority 2009, published 2011)
